PubChem BioAssay (NCI)
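Grown in 96-well plates, cells were treated for 48 hours with each compound at five concentrations. Insufficient inhibition: endpoint recorded as highest concentration tested. GI50 = concentration required for 50% inhibition of growth. TGI is the concentration that stops growth completely.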

What was measured:
Experiment in all cases: NCI tumour cell line growth inhibition, 48 h
BT-549 breast = test system: BT-549 breast
COLO 205 colon = test system: COLO 205 colon
HCC-2998 colon = test system: HCC-2998 colon
HOP-62 NSCLC = test system: HOP-62 NSCLC
OVCAR-5 ovarian = test system: OVCAR-5 ovarian
OVCAR-8 ovarian = test system: OVCAR-8 ovarian
RXF 393 renal = test system: RXF 393 renal
SF-539 CNS = test system: SF-539 CNS
SK-MEL-2 melanoma = test system: SK-MEL-2 melanoma
SK-OV-3 ovarian = test system: SK-OV-3 ovarian
UACC-62 melanoma = test system: UACC-62 melanoma
UO-31 renal = test system: UO-31 renal
HOP-92 NSCLC = test system: HOP-92 NSCLC
NCI-H460 lung = test system: NCI-H460 lung

Cc1ccc2c(c1)C(=O)c1ccc(C)nc1C2=O
TGI (BT-549 breast): 92.8 µM
TGI (COLO 205 colon): > 100 µM
TGI (HCC-2998 colon): 97.1 µM
TGI (HOP-62 NSCLC): > 100 µM
TGI (OVCAR-5 ovarian): > 100 µM
TGI (OVCAR-8 ovarian): > 100 µM
TGI (RXF 393 renal): > 100 µM
TGI (SF-539 CNS): 68.5 µM
TGI (SK-MEL-2 melanoma): > 100 µM
TGI (SK-OV-3 ovarian): > 100 µM
TGI (UACC-62 melanoma): 48.9 µM
TGI (UO-31 renal): > 100 µM

COc1ccc(C(c2ccccc2)N2C(=O)CCC2C(=O)O)cc1OC (stereo not given)
TGI (BT-549 breast): > 100 µM
TGI (COLO 205 colon): > 100 µM
TGI (HCC-2998 colon): > 100 µM
TGI (HOP-62 NSCLC): > 100 µM
TGI (HOP-92 NSCLC): > 100 µM
TGI (NCI-H460 lung): > 100 µM
TGI (OVCAR-5 ovarian): > 100 µM
TGI (OVCAR-8 ovarian): > 100 µM
TGI (SF-539 CNS): > 100 µM
TGI (SK-MEL-2 melanoma): > 100 µM
TGI (SK-OV-3 ovarian): > 100 µM
TGI (UACC-62 melanoma): > 100 µM
TGI (UO-31 renal): > 100 µM

COC(=O)[C@H]1[C@H](OC(=O)[C@@H](OC)c2ccccc2)ON2CC[C@@H](OC(=O)c3ccccc3)[C@H]12
TGI (COLO 205 colon): > 100 µM
TGI (HCC-2998 colon): > 100 µM
TGI (HOP-62 NSCLC): > 100 µM
TGI (HOP-92 NSCLC): 66 µM
TGI (NCI-H460 lung): > 100 µM
TGI (OVCAR-5 ovarian): > 100 µM
TGI (OVCAR-8 ovarian): > 100 µM
TGI (RXF 393 renal): > 100 µM
TGI (SK-MEL-2 melanoma): > 100 µM
TGI (SK-OV-3 ovarian): > 100 µM
TGI (UACC-62 melanoma): 28 µM
TGI (UO-31 renal): > 100 µM

CC(=O)/C(=C\n1c(=S)[nH]c2ccc([N+](=O)[O-])cc21)C(=O)Nc1ccccc1C
TGI (BT-549 breast): > 100 µM
TGI (COLO 205 colon): > 100 µM
TGI (HCC-2998 colon): > 100 µM
TGI (HOP-62 NSCLC): > 100 µM
TGI (NCI-H460 lung): > 100 µM
TGI (OVCAR-5 ovarian): > 100 µM
TGI (OVCAR-8 ovarian): > 100 µM
TGI (RXF 393 renal): > 100 µM
TGI (SF-539 CNS): > 100 µM
TGI (SK-MEL-2 melanoma): > 100 µM
TGI (SK-OV-3 ovarian): > 100 µM
TGI (UACC-62 melanoma): > 100 µM

CC(C)=CCc1c(O)c(CC=C(C)C)c2oc3c(c(=O)c2c1O)C(C=C(C)C)Oc1cc(O)ccc1-3 (stereo not given)
TGI (BT-549 breast): 25 µM
TGI (COLO 205 colon): 30.3 µM
TGI (HOP-62 NSCLC): 31 µM
TGI (HOP-92 NSCLC): 28.3 µM
TGI (NCI-H460 lung): 17 µM
TGI (OVCAR-5 ovarian): 33.1 µM
TGI (OVCAR-8 ovarian): 24.4 µM
TGI (SF-539 CNS): 25.5 µM
TGI (SK-MEL-2 melanoma): 7.93 µM
TGI (SK-OV-3 ovarian): 29 µM
TGI (UACC-62 melanoma): 18 µM
TGI (UO-31 renal): 15.7 µM

N#Cc1c(-c2ccccc2)cc(Nc2ccc(F)cc2)n2c1nc1ccccc12
TGI (BT-549 breast): > 25.2 µM
TGI (COLO 205 colon): 2.97 µM
TGI (HCC-2998 colon): > 100 µM
TGI (HOP-62 NSCLC): 40.8 µM
TGI (NCI-H460 lung): > 100 µM
TGI (OVCAR-5 ovarian): > 29.2 µM
TGI (OVCAR-8 ovarian): > 32.7 µM
TGI (RXF 393 renal): > 31.4 µM
TGI (SF-539 CNS): > 22.7 µM
TGI (SK-MEL-2 melanoma): 4.35 µM
TGI (SK-OV-3 ovarian): 8.71 µM
TGI (UACC-62 melanoma): 14.8 µM
TGI (UO-31 renal): 6.66 µM

CC[n+]1c(/C=C/c2ccc(N(CCCl)CCCl)cc2)ccc2cc(Br)ccc21
TGI (COLO 205 colon): 128 µM
TGI (HCC-2998 colon): 3.13 µM
GI50 (HOP-62 NSCLC): 954 µM
GI50 (HOP-92 NSCLC): 92.7 µM
TGI (NCI-H460 lung): 11.4 µM
GI50 (OVCAR-5 ovarian): 202 µM
TGI (OVCAR-8 ovarian): 10.4 µM
GI50 (RXF 393 renal): 588 µM
TGI (SF-539 CNS): 4.29 µM
TGI (SK-MEL-2 melanoma): 1.28 µM
TGI (SK-OV-3 ovarian): 9.09 µM
TGI (UACC-62 melanoma): 7.55 µM
GI50 (UO-31 renal): 1470 µM

CCOC(=O)C(NC(=O)Nc1ccccc1F)(OC)C(F)(F)F (stereo not given)
TGI (BT-549 breast): > 100 µM
TGI (COLO 205 colon): > 100 µM
TGI (HCC-2998 colon): > 100 µM
TGI (OVCAR-5 ovarian): > 100 µM
TGI (OVCAR-8 ovarian): > 100 µM
TGI (RXF 393 renal): > 100 µM
TGI (SF-539 CNS): > 100 µM
TGI (SK-MEL-2 melanoma): > 100 µM
TGI (SK-OV-3 ovarian): > 100 µM
TGI (UO-31 renal): > 100 µM

CCCNc1c(Cl)cc(Cl)c2[nH]c3ccccc3c(=O)c12
TGI (BT-549 breast): > 100 µM
TGI (COLO 205 colon): > 100 µM
TGI (HCC-2998 colon): > 100 µM
TGI (HOP-62 NSCLC): > 100 µM
TGI (HOP-92 NSCLC): 35 µM
TGI (OVCAR-5 ovarian): > 100 µM
TGI (OVCAR-8 ovarian): > 100 µM
TGI (SF-539 CNS): > 100 µM
TGI (SK-MEL-2 melanoma): > 100 µM
TGI (SK-OV-3 ovarian): > 100 µM
TGI (UACC-62 melanoma): > 100 µM
TGI (UO-31 renal): > 100 µM

CC1(C)O[C@@H]([C@@H](O)[C@H](O)C2SCCCS2)[C@@H](CO)O1
TGI (BT-549 breast): > 100 µM
TGI (COLO 205 colon): > 100 µM
TGI (HOP-62 NSCLC): > 100 µM
TGI (HOP-92 NSCLC): > 100 µM
TGI (NCI-H460 lung): > 100 µM
TGI (OVCAR-5 ovarian): > 100 µM
TGI (OVCAR-8 ovarian): > 100 µM
TGI (RXF 393 renal): > 100 µM
TGI (SK-MEL-2 melanoma): > 100 µM
TGI (SK-OV-3 ovarian): > 100 µM
TGI (UACC-62 melanoma): > 100 µM
TGI (UO-31 renal): > 100 µM

O=C(N/N=C1\CCc2ccccc21)N/N=C1\CCc2ccccc21
TGI (BT-549 breast): > 100 µM
TGI (COLO 205 colon): > 100 µM
TGI (HCC-2998 colon): > 100 µM
TGI (HOP-62 NSCLC): > 100 µM
TGI (NCI-H460 lung): > 100 µM
TGI (OVCAR-5 ovarian): > 100 µM
TGI (OVCAR-8 ovarian): > 100 µM
TGI (RXF 393 renal): > 100 µM
TGI (SF-539 CNS): > 100 µM
TGI (SK-MEL-2 melanoma): > 100 µM
TGI (SK-OV-3 ovarian): > 100 µM
TGI (UACC-62 melanoma): > 100 µM
TGI (UO-31 renal): > 100 µM

c1ccc2c(-c3ccnc(-c4c[nH]c5ccccc45)n3)c[nH]c2c1
TGI (BT-549 breast): > 100 µM
TGI (COLO 205 colon): > 100 µM
TGI (HOP-62 NSCLC): 28.7 µM
TGI (HOP-92 NSCLC): 5.83 µM
TGI (NCI-H460 lung): > 100 µM
TGI (OVCAR-5 ovarian): > 100 µM
TGI (OVCAR-8 ovarian): 22.9 µM
TGI (SF-539 CNS): > 100 µM
TGI (SK-MEL-2 melanoma): > 100 µM
TGI (SK-OV-3 ovarian): > 100 µM
TGI (UO-31 renal): > 100 µM

CSc1ccc(C=C2N=C(c3ccccc3)N(c3cc(C(=O)c4ccccc4)ccc3N3C(=O)/C(=C/c4ccc(SC)cc4)N=C3c3ccccc3)C2=O)cc1
TGI (BT-549 breast): > 100 µM
TGI (COLO 205 colon): > 100 µM
TGI (HCC-2998 colon): > 100 µM
TGI (HOP-62 NSCLC): > 100 µM
TGI (HOP-92 NSCLC): > 100 µM
TGI (NCI-H460 lung): > 100 µM
TGI (OVCAR-5 ovarian): > 100 µM
TGI (OVCAR-8 ovarian): > 100 µM
TGI (SF-539 CNS): 79.5 µM
TGI (SK-MEL-2 melanoma): > 100 µM
TGI (SK-OV-3 ovarian): > 100 µM
TGI (UACC-62 melanoma): > 100 µM
TGI (UO-31 renal): > 100 µM

COc1ccc([N+](=O)[O-])cc1[I+]c1cc([N+](=O)[O-])ccc1OC
TGI (BT-549 breast): > 100 µM
TGI (COLO 205 colon): > 100 µM
TGI (HCC-2998 colon): > 100 µM
TGI (HOP-62 NSCLC): > 100 µM
TGI (NCI-H460 lung): 80.3 µM
TGI (OVCAR-5 ovarian): > 100 µM
TGI (OVCAR-8 ovarian): > 100 µM
TGI (RXF 393 renal): > 100 µM
TGI (SF-539 CNS): > 100 µM
TGI (SK-MEL-2 melanoma): > 100 µM
TGI (SK-OV-3 ovarian): 82.3 µM
TGI (UACC-62 melanoma): 94.8 µM
TGI (UO-31 renal): > 100 µM

O=C1C2=Cc3ccccc3CCN2c2ccc([N+](=O)[O-])cc21
TGI (COLO 205 colon): > 100 µM
TGI (HCC-2998 colon): > 100 µM
TGI (HOP-62 NSCLC): > 100 µM
TGI (HOP-92 NSCLC): > 100 µM
TGI (NCI-H460 lung): > 100 µM
TGI (OVCAR-5 ovarian): > 100 µM
TGI (OVCAR-8 ovarian): > 100 µM
TGI (RXF 393 renal): > 100 µM
TGI (SF-539 CNS): > 100 µM
TGI (UACC-62 melanoma): > 100 µM
TGI (UO-31 renal): 97.7 µM

COc1ccc(/C=N/Nc2nc3ccccc3c(=O)n2-c2ccccc2)cc1
TGI (COLO 205 colon): > 100 µM
TGI (HCC-2998 colon): > 100 µM
TGI (HOP-62 NSCLC): > 100 µM
TGI (NCI-H460 lung): > 100 µM
TGI (OVCAR-5 ovarian): > 100 µM
TGI (OVCAR-8 ovarian): > 100 µM
TGI (RXF 393 renal): > 100 µM
TGI (SF-539 CNS): > 100 µM
TGI (SK-MEL-2 melanoma): > 100 µM
TGI (SK-OV-3 ovarian): > 100 µM
TGI (UACC-62 melanoma): > 100 µM
TGI (UO-31 renal): 14.9 µM

COC1(CCO)CC=CCC1(CCO)OC (stereo not given)
TGI (BT-549 breast): > 100 µM
TGI (COLO 205 colon): > 100 µM
TGI (HOP-62 NSCLC): > 100 µM
TGI (HOP-92 NSCLC): > 100 µM
TGI (NCI-H460 lung): > 100 µM
TGI (OVCAR-5 ovarian): > 100 µM
TGI (OVCAR-8 ovarian): > 100 µM
TGI (SK-MEL-2 melanoma): > 100 µM
TGI (SK-OV-3 ovarian): > 100 µM
TGI (UACC-62 melanoma): > 100 µM
TGI (UO-31 renal): > 100 µM
